Results published in US6331636A, “Therapeutically useful 2-aminotetralin derivatives” (priority 1992, dated 2001).
Counter-ions that a name gives are not always drawn.

What was measured:
[1] = cited from earlier work
[2] = system: 5-HT receptor; conditions: J. Med. Chem., 30, 2105 (1987); cited from earlier work
[3] = Hypothermia in mice after subcutaneous injection; type: in vivo; conditions: Mus musculus, sc, dose depressing body temperature by 2° C. in two of four mice
Protocol: Starting with a dose of 30 mg/kg, four mice are injected subcutaneously with test compound. Twenty minutes later, the number of animals whose body temperature has decreased by 2° C. or more are counted. […] The time for last statistically significant drug affect on mean body temperature is indicated in minutes. […] Potency is given as mg/kg ED50 (dose required to depress temperature in two of four mice) as measured by Spearman-Karber statistics.

[4] = background, cited from earlier work
[5] = system: dopamine receptors; conditions: background; cited from earlier work

## COc1cccc2c1CCC(NC1CC1)C2C (stereo not drawn) [1-methyl-2-(cyclopropylamino)-5-methoxytetralin]
[1]; J. Pharm. Sci., 67, 880-82 (1978)
  local anesthetic activity: local anesthetic activity

## CCCN(CCC)C1CCc2cccc(O)c2C1C (stereo not drawn) [8-hydroxy-1-methyl-2-(di-n-propylamino)tetralins]
[2]
  5-HT receptor agonism: 5-HT receptor agonists

## C=CCN[C@H]1CCc2cccc(OC)c2[C@H]1CC=C (relative stereo) [Example 26, Compound 1, Cis-(±)-1,2,3,4-Tetrahydro-8-methoxy-N,1-di-(2-pro-penyl)-2-naphthalenamine Hydrochloride]
[3]
  ED50: 2.31 mg/kg

## CN(C)C1CCc2ccc(O)cc2C1(C)C (stereo not drawn) [1,1-Dimethyl-2-(N,N-dimethylamino)-7-hydroxytetralin]
[1]; Chem. Ab., 79: 146294b
  analgesic and intestinal activity: analgesic and intestinal movement accelerating actions

## CC1(C)CC(=O)N(CCCCN2CCN(c3ncccn3)CC2)C(=O)C1 [Gepirone]
[4]; clinical
  anxiolytic / anti-anxiety activity: clinically demonstrated anti-anxiety activities
[4]; some patients
  effect on depressive endpoints: ameliorative effects on some depressive endpoints in some patients
[5]
  dopamine receptor activity: also has dopamine antagonist properties

## O=C1CC2(CCCC2)CC(=O)N1CCCCN1CCN(c2ncccn2)CC1 [Buspirone]
[5]
  dopamine receptor activity: antagonizes dopamine receptors at the same dose it stimulates 5-HT1A receptors

## CN1CCc2cccc3c2[C@H]1Cc1ccc(O)c(O)c1-3 [apomorphine]
[5]
  dopamine receptor activity: able to activate the dopamine autoreceptors as well as the post synaptic dopamine receptors
